We go through four compounds from ChEMBL document CHEMBL1909046, “DrugMatrix in vitro pharmacology data”.

Substance-P receptor, sequence (P25103 whole entry): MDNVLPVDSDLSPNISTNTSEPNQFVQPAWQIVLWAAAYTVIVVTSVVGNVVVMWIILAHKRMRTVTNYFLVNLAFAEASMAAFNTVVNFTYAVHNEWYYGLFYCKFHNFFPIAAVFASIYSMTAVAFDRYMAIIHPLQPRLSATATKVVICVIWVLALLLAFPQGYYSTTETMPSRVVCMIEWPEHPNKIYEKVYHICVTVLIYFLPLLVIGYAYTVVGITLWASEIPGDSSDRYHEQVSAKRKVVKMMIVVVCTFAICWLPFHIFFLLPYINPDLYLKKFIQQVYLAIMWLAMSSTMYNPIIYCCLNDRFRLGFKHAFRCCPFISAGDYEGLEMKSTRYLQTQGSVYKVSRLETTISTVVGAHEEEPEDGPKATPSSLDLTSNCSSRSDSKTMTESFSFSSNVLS

The first assay addresses T1, Alpha-1A adrenergic receptor (Rattus norvegicus, UniProt P43140).
T1 sequence (P43140 whole entry): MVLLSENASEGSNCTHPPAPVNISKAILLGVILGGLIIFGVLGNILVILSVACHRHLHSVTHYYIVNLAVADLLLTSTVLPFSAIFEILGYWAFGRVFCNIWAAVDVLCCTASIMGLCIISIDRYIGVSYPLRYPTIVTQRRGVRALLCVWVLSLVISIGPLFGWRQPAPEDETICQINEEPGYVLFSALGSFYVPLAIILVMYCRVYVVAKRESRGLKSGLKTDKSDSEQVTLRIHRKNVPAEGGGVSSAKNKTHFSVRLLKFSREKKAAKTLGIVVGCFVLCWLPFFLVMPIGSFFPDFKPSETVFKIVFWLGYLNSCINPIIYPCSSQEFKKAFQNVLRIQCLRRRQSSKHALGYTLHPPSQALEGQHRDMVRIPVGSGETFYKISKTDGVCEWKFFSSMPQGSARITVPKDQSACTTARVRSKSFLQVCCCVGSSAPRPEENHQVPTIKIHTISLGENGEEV
In words: DRUGMATRIX: Alpha-1A adrenergic receptor radioligand binding (ligand: prazosin). Format: cell membranes, Wistar, Submaxillary gland, Membrane. The settings on record: Not Active = under 50% inhibition at 10 µM.
Take `COc1cc(C(=O)NS(=O)(=O)c2ccccc2C)ccc1Cc1cn(C)c2ccc(NC(=O)OC3CCCC3)cc12` [ZAFIRLUKAST]: the IC50 entry is recorded as “Not Active”.
Same read-out and setting: the same measure for `Cc1cn([C@H]2C[C@H](N=[N+]=[N-])[C@@H](CO)O2)c(=O)[nH]c1=O` [ZIDOVUDINE]: “Not Active”.
As for STANNOUS FLUORIDE, the IC50 entry is listed as “Not Active” and the Ki result is “Not Active”.
Turning to THIMEROSAL, the IC50 entry is recorded as “Not Active” and the Ki entry is “Not Active”.

The next assay addresses T2, Calcitonin receptor (Homo sapiens, UniProt P30988).
T2 sequence (P30988 whole entry): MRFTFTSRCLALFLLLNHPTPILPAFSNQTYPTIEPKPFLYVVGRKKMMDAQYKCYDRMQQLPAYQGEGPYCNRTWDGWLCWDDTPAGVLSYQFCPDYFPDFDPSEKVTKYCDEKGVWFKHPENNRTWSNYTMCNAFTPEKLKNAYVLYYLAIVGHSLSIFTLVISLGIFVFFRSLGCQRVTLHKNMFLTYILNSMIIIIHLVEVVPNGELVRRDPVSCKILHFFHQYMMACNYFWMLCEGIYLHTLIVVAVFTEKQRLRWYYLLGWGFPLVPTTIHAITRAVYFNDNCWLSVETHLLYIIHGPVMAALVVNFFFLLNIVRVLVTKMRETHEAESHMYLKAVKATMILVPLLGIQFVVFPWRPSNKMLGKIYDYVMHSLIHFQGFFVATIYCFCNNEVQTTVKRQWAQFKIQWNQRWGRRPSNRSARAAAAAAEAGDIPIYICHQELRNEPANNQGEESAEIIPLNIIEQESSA
Format: cell membranes, Membrane. The settings on record: t47d.
Turning to `COc1cc(C(=O)NS(=O)(=O)c2ccccc2C)ccc1Cc1cn(C)c2ccc(NC(=O)OC3CCCC3)cc12` [ZAFIRLUKAST], the IC50 entry was “Not Active”.
On to `Cc1cn([C@H]2C[C@H](N=[N+]=[N-])[C@@H](CO)O2)c(=O)[nH]c1=O` [ZIDOVUDINE], for which the IC50 result was “Not Active”.
For the compound STANNOUS FLUORIDE, the IC50 entry is “Not Active” and the Ki entry is recorded as “Not Active”.
Turning to THIMEROSAL, the IC50 result was “Not Active” and the Ki entry is listed as “Not Active”.

Another assay concerns the target Substance-P receptor (Homo sapiens, UniProt P25103). It counts as cell membranes, Membrane. The settings on record: cho. Also: in other assays of this panel Not Active means under 50% inhibition at 10 µM.
Take `COc1cc(C(=O)NS(=O)(=O)c2ccccc2C)ccc1Cc1cn(C)c2ccc(NC(=O)OC3CCCC3)cc12` [ZAFIRLUKAST]: the IC50 result is “Not Active”.
On the same count and under the same terms, for `Cc1cn([C@H]2C[C@H](N=[N+]=[N-])[C@@H](CO)O2)c(=O)[nH]c1=O` [ZIDOVUDINE] the value was “Not Active”.
For the compound STANNOUS FLUORIDE, the IC50 result is listed as “Not Active” and the Ki entry is listed as “Not Active”.
Take THIMEROSAL: the IC50 result was “Not Active” and the Ki result was “Not Active”.

System in the next assay: not listed separately
In words: DRUGMATRIX: Phosphodiesterase PDE3 enzyme inhibition (substrate: [3H]cAMP + cAMP). It counts as tissue-based, Homo sapiens. The settings on record: platelet; Not Active = under 50% inhibition at 10 µM.
For the compound `COc1cc(C(=O)NS(=O)(=O)c2ccccc2C)ccc1Cc1cn(C)c2ccc(NC(=O)OC3CCCC3)cc12` [ZAFIRLUKAST], the IC50 entry is “Not Active” and the Ki result is on record as “Not Active”.
Take `Cc1cn([C@H]2C[C@H](N=[N+]=[N-])[C@@H](CO)O2)c(=O)[nH]c1=O` [ZIDOVUDINE]: the IC50 entry is given as “Not Active” and the Ki result is reported as “Not Active”.
As to STANNOUS FLUORIDE, the IC50 entry is “Not Active” and the Ki result was “Not Active”.
As to THIMEROSAL, the IC50 result is recorded as “Not Active” and the Ki result was “Not Active”.

The next assay concerns the target T3, Angiotensin-converting enzyme (Oryctolagus cuniculus, UniProt P12822).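 Also: enzymatic inhibition of angiotensin-converting enzyme measured with FAPGG as the substrate; in other assays of this panel Not Active means under 50% inhibition at 10 µM.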
T3 sequence (P12822 whole entry): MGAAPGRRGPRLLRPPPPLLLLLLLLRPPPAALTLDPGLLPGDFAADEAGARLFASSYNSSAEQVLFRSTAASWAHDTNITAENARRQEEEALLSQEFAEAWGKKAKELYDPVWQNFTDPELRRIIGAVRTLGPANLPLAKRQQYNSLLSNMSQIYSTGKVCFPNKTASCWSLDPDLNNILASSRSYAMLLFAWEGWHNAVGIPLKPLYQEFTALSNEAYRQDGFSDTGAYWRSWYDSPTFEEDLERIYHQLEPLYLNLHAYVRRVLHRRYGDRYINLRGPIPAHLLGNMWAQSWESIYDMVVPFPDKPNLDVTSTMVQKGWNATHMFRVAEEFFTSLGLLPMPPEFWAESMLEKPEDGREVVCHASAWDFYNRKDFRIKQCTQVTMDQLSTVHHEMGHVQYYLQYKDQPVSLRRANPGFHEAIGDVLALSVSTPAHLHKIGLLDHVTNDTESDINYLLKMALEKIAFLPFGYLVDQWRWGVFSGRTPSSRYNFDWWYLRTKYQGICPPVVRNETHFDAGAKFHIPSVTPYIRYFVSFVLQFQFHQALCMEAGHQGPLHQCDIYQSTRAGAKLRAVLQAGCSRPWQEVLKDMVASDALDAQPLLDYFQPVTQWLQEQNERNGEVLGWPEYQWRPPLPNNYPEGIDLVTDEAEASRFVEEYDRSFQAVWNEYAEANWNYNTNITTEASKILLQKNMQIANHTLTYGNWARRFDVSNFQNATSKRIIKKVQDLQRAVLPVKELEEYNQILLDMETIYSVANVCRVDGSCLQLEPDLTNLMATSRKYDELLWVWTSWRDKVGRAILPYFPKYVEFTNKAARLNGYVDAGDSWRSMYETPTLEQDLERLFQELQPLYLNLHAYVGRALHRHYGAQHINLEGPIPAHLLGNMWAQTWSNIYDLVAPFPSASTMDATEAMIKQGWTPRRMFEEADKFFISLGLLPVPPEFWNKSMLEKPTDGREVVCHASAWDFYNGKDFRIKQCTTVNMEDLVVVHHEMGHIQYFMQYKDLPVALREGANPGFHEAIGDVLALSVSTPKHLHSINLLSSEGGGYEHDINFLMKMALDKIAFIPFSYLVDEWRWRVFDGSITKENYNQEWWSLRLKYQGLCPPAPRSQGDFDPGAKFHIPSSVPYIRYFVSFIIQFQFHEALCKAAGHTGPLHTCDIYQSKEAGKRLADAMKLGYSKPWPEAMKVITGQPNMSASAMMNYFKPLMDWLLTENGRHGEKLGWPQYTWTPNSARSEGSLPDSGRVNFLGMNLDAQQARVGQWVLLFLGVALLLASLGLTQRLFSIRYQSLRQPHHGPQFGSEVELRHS
It counts as tissue-based, Lung.
Settings: not given
With `COc1cc(C(=O)NS(=O)(=O)c2ccccc2C)ccc1Cc1cn(C)c2ccc(NC(=O)OC3CCCC3)cc12` [ZAFIRLUKAST], the IC50 result is listed as “Not Active”.
For the compound `Cc1cn([C@H]2C[C@H](N=[N+]=[N-])[C@@H](CO)O2)c(=O)[nH]c1=O` [ZIDOVUDINE], the IC50 entry is “Not Active”.
On to STANNOUS FLUORIDE, for which the IC50 result is reported as “Not Active” and the Ki entry is “Not Active”.
As for THIMEROSAL, the IC50 result is listed as “Not Active” and the Ki result is recorded as “Not Active”.

The target in a further assay is T4, Neutrophil elastase (Homo sapiens, UniProt P08246).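 Also: inhibition of neutrophil elastase enzyme activity, measured with a p-nitroanilide-linked peptide substrate; in other assays of this panel Not Active means under 50% inhibition at 10 µM.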
T4 sequence (P08246 whole entry): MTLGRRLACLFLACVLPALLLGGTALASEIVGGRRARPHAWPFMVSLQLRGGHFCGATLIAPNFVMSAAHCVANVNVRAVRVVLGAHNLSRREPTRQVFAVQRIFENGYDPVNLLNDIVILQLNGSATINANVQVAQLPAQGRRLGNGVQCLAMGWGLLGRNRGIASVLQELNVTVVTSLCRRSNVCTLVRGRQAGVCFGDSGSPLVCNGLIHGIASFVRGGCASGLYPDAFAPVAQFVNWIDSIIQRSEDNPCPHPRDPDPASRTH
It counts as tissue-based.
Settings: not given
Regarding `COc1cc(C(=O)NS(=O)(=O)c2ccccc2C)ccc1Cc1cn(C)c2ccc(NC(=O)OC3CCCC3)cc12` [ZAFIRLUKAST], the IC50 result is listed as “Not Active”.
Regarding `Cc1cn([C@H]2C[C@H](N=[N+]=[N-])[C@@H](CO)O2)c(=O)[nH]c1=O` [ZIDOVUDINE], the IC50 entry was “Not Active”.
For STANNOUS FLUORIDE, the IC50 result is on record as “Not Active” and the Ki entry is listed as “Not Active”.
With THIMEROSAL, the IC50 entry is given as “Not Active” and the Ki result is “Not Active”.
